In US12252701B2, “Chimeric antigen receptor T cell therapy” (KITE PHARMA, INC., priority 2020, dated 2025):

Assays:
in vitro = details: human, CAR-T cells
Nalm-6 luc = assay: CAR-T cell killing assay (luciferase viability of tumor cells)
[1] = test system: phospho-STAT panel (pSTAT3/4/5), CD3+ T cells; assay: phospho-STAT induction by IL-6, MesoScale Discovery phospho-STAT panel; assay type: cell-based, human; details: CD3+ T cells
Experimental: CD19 CAR-T, PBMC or CD3+ T cells (AllCells) were thawed and rested 0/N at 37° C. in R10 media. Cells were seeded at 700,000 cells/well and were either untreated or treated with 100 ng/ml IL6+drug at indicated concentrations for 20 minutes at 37° C. The cells were then washed with cold PBS and followed by 60 μl of Tris lysis buffer (provided by MSD) for 30 minutes on ice. Lysates were collected by spin down for 10 minutes at >10,000 rpm. 25 μl/well per condition was used for MesoScale Discovery (MSD) assay using the phospho-STAT panel (pSTAT3/4/5) from MesoScale Discovery following the manufacturer's protocol. pSTAT panel plates were blocked with 150 μl of blocker A solution for 1 hr at RT with shaking. Plates were washed three times with 1× Tris wash buffer. 25 μl of lysate samples were added per well, incubated 2 hr at room temperature or at 4° C. overnight. Plates were washed 3 times with 1× tris wash buffer and then 25 μl of detection antibody solution were added to each well and incubated for 1 hr at room temperature with shaking. Plates were washed and 1× read buffer added to each well and plates were read on the MSD instrument.

## CC[C@@H]1CN(C(=O)NCC(F)(F)F)C[C@@H]1c1cnc2cnc3[nH]ccc3n12 [upadacitinib]
In vitro
  viability at 0 day, 50 nM: 75%
  viability at 0 day, 100 nM: 75%
  viability at 4 day, 50 nM: 63.2%
  viability at 4 day, 100 nM: 59.9%
  viability at 8 day, 50 nM: 65.3%
  viability at 8 day, 100 nM: 62%
  viability at 12 day, 50 nM: 79%
  viability at 12 day, 100 nM: 67.5%
Nalm-6 luc; E:T ratio 1:1, dose 10 nM
  Mean tumor cell death (%): 96.9%
Nalm-6 luc; E:T ratio 1:1, dose 20 nM
  Mean tumor cell death (%): 96.3%
Nalm-6 luc; E:T ratio 1:1, dose 40 nM
  Mean tumor cell death (%): 96.3%
Nalm-6 luc; E:T ratio 1:1, dose 60 nM
  Mean tumor cell death (%): 94.5%
Nalm-6 luc; E:T ratio 1:1, dose 80 nM
  Mean tumor cell death (%): 94.4%
Nalm-6 luc; E:T ratio 1:1, dose 100 nM
  Mean tumor cell death (%): 92%
Nalm-6 luc; E:T ratio 1:3, dose 10 nM
  Mean tumor cell death (%): 68.1%
Nalm-6 luc; E:T ratio 1:3, dose 20 nM
  Mean tumor cell death (%): 66.1%
Nalm-6 luc; E:T ratio 1:3, dose 40 nM
  Mean tumor cell death (%): 60.5%
Nalm-6 luc; E:T ratio 1:3, dose 60 nM
  Mean tumor cell death (%): 46.2%
Nalm-6 luc; E:T ratio 1:3, dose 80 nM
  Mean tumor cell death (%): 46.5%
Nalm-6 luc; E:T ratio 1:3, dose 100 nM
  Mean tumor cell death (%): 25.7%
Nalm-6 luc; E:T ratio 1:9, dose 10 nM
  Mean tumor cell death (%): 35.6%
Nalm-6 luc; E:T ratio 1:9, dose 20 nM
  Mean tumor cell death (%): 25.6%
Nalm-6 luc; E:T ratio 1:9, dose 40 nM
  Mean tumor cell death (%): 34.7%
Nalm-6 luc; E:T ratio 1:9, dose 60 nM
  Mean tumor cell death (%): 33.4%
Nalm-6 luc; E:T ratio 1:9, dose 80 nM
  Mean tumor cell death (%): 23%
Nalm-6 luc; E:T ratio 1:9, dose 100 nM
  Mean tumor cell death (%): 16.9%
[1]; 100 ng/ml IL-6 + drug 10 uM, 20 min, MSD signal (No stim. 689, IL-6 alone 33641)
  pSTAT3: 2450
[1]; 100 ng/ml IL-6 + drug 10 uM, 20 min, MSD signal (No stim. 1964, IL-6 alone 15405)
  pSTAT4: 2322
[1]; 100 ng/ml IL-6 + drug 10 uM, 20 min, MSD signal (No stim. 9210, IL-6 alone 17743)
  pSTAT5: 1354
[1]; IL-6 + drug 0.125 uM, MSD signal (No stim. 689, IL-6 alone 33641)
  pSTAT3: 3605
[1]; IL-6 + drug 0.125 uM, MSD signal (No stim. 1964, IL-6 alone 15405)
  pSTAT4: 2819
[1]; IL-6 + drug 0.125 uM, MSD signal (No stim. 9210, IL-6 alone 17743)
  pSTAT5: 1757
[1]; IL-6 + drug 0.5 uM, MSD signal (No stim. 689, IL-6 alone 33641)
  pSTAT3: 2207
[1]; IL-6 + drug 0.5 uM, MSD signal (No stim. 1964, IL-6 alone 15405)
  pSTAT4: 2397
[1]; IL-6 + drug 0.5 uM, MSD signal (No stim. 9210, IL-6 alone 17743)
  pSTAT5: 1528
[1]; IL-6 + drug 1 uM, MSD signal (No stim. 689, IL-6 alone 33641)
  pSTAT3: 2393
[1]; IL-6 + drug 1 uM, MSD signal (No stim. 1964, IL-6 alone 15405)
  pSTAT4: 2417
[1]; IL-6 + drug 1 uM, MSD signal (No stim. 9210, IL-6 alone 17743)
  pSTAT5: 1534
[1]; IL-6 + drug 5 uM, MSD signal (No stim. 689, IL-6 alone 33641)
  pSTAT3: 2290
[1]; IL-6 + drug 5 uM, MSD signal (No stim. 1964, IL-6 alone 15405)
  pSTAT4: 2229
[1]; IL-6 + drug 5 uM, MSD signal (No stim. 9210, IL-6 alone 17743)
  pSTAT5: 1452
[1]; lower dose titration, IL-6 + drug 3.125 nM, MSD signal (No stim. 123, IL-6 alone 5767)
  pSTAT3: 4615
[1]; lower dose titration, IL-6 + drug 3.125 nM, MSD signal (No stim. 281, IL-6 alone 3624)
  pSTAT4: 2687
[1]; lower dose titration, IL-6 + drug 3.125 nM, MSD signal (No stim. 324, IL-6 alone 2352)
  pSTAT5: 1166
[1]; lower dose titration, IL-6 + drug 6.25 nM, MSD signal (No stim. 123, IL-6 alone 5767)
  pSTAT3: 3572
[1]; lower dose titration, IL-6 + drug 6.25 nM, MSD signal (No stim. 281, IL-6 alone 3624)
  pSTAT4: 2797
[1]; lower dose titration, IL-6 + drug 6.25 nM, MSD signal (No stim. 324, IL-6 alone 2352)
  pSTAT5: 1123
[1]; lower dose titration, IL-6 + drug 12.5 nM, MSD signal (No stim. 123, IL-6 alone 5767)
  pSTAT3: 2560
[1]; lower dose titration, IL-6 + drug 12.5 nM, MSD signal (No stim. 281, IL-6 alone 3624)
  pSTAT4: 1607
[1]; lower dose titration, IL-6 + drug 12.5 nM, MSD signal (No stim. 324, IL-6 alone 2352)
  pSTAT5: 696
[1]; lower dose titration, IL-6 + drug 25 nM, MSD signal (No stim. 123, IL-6 alone 5767)
  pSTAT3: 1495
[1]; lower dose titration, IL-6 + drug 25 nM, MSD signal (No stim. 281, IL-6 alone 3624)
  pSTAT4: 1248
[1]; lower dose titration, IL-6 + drug 25 nM, MSD signal (No stim. 324, IL-6 alone 2352)
  pSTAT5: 564
[1]; lower dose titration, IL-6 + drug 50 nM, MSD signal (No stim. 123, IL-6 alone 5767)
  pSTAT3: 713
[1]; lower dose titration, IL-6 + drug 50 nM, MSD signal (No stim. 281, IL-6 alone 3624)
  pSTAT4: 860
[1]; lower dose titration, IL-6 + drug 50 nM, MSD signal (No stim. 324, IL-6 alone 2352)
  pSTAT5: 460
[1]; lower dose titration, IL-6 + drug 100 nM, MSD signal (No stim. 123, IL-6 alone 5767)
  pSTAT3: 319
[1]; lower dose titration, IL-6 + drug 100 nM, MSD signal (No stim. 281, IL-6 alone 3624)
  pSTAT4: 555
[1]; lower dose titration, IL-6 + drug 100 nM, MSD signal (No stim. 324, IL-6 alone 2352)
  pSTAT5: 375
